Assay results reported in US11420973B2, “Amide substituted indole compounds useful as TLR inhibitors” (BRISTOL-MYERS SQUIBB COMPANY, priority 2017, dated 2022).

Experiments:
human TLR7 = human TLR7 (Homo sapiens (Human), UniProt Q9NYK1); assay: TLR7 inhibition reporter assay (HEK-Blue SEAP reporter, gardiquimod stimulation); format: cell-based; settings: HEK-Blue cells overexpressing human TLR7, gardiquimod 7.5 μM
human TLR8 = human TLR8 (Homo sapiens (Human), UniProt Q9NR97); assay: TLR8 inhibition reporter assay (HEK-Blue SEAP reporter, R848 stimulation); settings: read-out: TLR8 IC50; HEK-Blue cells overexpressing human TLR8, R848 15.9 μM, SEAP reporter;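 note: SEAP driven by IFN-β minimal promoter with NF-κB and AP-1 sites, 22 h incubation, compounds 0.05 nM–50 µM, inhibition scaled between agonist plus DMSO and reference inhibitor wells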
human TLR8, sequence (Q9NR97 27-1041): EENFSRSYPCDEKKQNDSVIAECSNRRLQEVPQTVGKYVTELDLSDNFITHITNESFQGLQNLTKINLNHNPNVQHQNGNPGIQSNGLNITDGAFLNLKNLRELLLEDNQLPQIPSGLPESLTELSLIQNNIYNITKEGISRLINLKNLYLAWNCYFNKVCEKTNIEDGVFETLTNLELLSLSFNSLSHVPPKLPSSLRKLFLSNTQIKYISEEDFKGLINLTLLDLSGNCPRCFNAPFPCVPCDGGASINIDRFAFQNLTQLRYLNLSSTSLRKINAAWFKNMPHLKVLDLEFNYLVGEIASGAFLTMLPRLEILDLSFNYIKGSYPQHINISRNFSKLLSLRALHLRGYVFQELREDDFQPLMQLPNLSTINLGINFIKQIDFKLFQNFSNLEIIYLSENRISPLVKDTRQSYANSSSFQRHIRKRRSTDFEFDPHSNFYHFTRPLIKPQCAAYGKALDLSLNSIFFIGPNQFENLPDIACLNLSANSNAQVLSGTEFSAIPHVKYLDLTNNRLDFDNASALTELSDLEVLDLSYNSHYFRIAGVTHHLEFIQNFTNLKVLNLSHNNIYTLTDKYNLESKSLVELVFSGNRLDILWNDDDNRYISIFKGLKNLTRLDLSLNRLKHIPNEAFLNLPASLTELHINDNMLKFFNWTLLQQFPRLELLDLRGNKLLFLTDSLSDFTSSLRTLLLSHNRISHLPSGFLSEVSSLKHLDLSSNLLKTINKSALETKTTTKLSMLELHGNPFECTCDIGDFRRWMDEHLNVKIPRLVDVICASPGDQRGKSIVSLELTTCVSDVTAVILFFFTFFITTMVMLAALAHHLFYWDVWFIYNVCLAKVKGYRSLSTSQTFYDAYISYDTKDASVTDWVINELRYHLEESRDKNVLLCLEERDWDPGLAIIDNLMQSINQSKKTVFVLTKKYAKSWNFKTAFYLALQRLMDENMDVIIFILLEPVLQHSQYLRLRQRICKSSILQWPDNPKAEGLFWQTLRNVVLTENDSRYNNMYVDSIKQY
Experimental: (§1) HEK-Blue™-cells (Invivogen) overexpressing human TLR7, TLR8 or TLR9 receptors were used for screening inhibitors of these receptors using an inducible SEAP (secreted embryonic alkaline phosphatase) reporter gene under the control of the IFN-β minimal promoter fused to five NF-κB and AP-1-binding sites. Briefly, cells are seeded into Greiner 384 well plates (15000 cells per well for TLR7, 20,000 for TLR8 and 25,000 for TLR9) and then treated with test compounds in DMSO to yield a final dose response concentration range of 0.05 nM-50 μM. After a 30 minute compound pre-treatment at room temperature, the cells are then stimulated with a TLR7 ligand (gardiquimod at a final concentration of 7.5 μM), TLR8 ligand (R848 at a final concentration of 15.9 μM) or TLR9 ligand (ODN2006 at a final concentration of 5 nM) to activate NF-κB and AP-1 which induce the production of SEAP. After a 22 hour incubation at 37° C., 5% CO2, SEAP levels are determined with the addition of HEK-Blue™ Detection reagent (Invivogen), a cell culture medium that allows for detection of SEAP, according to manufacturer's specifications.

human TLR9 = human TLR9 (Homo sapiens (Human), UniProt Q9NR96); assay: TLR9 inhibition reporter assay (HEK-Blue SEAP reporter, ODN2006 stimulation); settings: read-out: TLR9 IC50; HEK-Blue cells overexpressing human TLR9, ODN2006 5 nM, SEAP reporter;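 note: SEAP reporter under IFN-β minimal promoter with five NF-κB and AP-1 sites, 22 h incubation, compounds 0.05 nM–50 µM, inhibition relative to agonist plus DMSO versus known inhibitor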
human TLR9, sequence (Q9NR96 26-1032): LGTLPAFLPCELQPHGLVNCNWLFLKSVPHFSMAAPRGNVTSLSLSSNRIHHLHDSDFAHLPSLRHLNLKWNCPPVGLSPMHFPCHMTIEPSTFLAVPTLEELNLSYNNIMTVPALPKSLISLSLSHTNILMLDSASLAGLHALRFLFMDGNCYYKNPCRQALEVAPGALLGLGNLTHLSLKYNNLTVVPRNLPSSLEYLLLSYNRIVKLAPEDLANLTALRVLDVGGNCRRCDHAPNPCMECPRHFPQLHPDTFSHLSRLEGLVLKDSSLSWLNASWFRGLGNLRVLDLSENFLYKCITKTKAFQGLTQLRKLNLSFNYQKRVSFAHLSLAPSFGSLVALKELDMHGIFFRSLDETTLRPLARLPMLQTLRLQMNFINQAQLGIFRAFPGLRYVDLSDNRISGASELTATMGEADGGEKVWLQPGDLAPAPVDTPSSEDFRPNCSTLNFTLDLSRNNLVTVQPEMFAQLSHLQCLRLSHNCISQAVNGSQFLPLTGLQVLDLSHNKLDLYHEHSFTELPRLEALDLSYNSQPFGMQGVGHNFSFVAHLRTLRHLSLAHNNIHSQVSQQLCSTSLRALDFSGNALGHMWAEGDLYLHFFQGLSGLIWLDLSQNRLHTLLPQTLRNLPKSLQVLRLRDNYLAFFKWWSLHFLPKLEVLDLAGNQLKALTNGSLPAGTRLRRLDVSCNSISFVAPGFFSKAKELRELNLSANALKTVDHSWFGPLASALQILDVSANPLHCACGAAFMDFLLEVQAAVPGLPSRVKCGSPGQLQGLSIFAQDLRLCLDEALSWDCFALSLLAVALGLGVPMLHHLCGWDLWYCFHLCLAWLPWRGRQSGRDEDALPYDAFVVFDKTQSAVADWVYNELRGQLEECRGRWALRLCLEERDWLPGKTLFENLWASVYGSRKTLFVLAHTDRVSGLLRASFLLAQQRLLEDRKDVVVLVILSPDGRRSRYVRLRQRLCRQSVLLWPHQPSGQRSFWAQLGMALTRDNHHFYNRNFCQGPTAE
Experimental: as §1

human TLR7, sequence (Q9NYK1 27-1049): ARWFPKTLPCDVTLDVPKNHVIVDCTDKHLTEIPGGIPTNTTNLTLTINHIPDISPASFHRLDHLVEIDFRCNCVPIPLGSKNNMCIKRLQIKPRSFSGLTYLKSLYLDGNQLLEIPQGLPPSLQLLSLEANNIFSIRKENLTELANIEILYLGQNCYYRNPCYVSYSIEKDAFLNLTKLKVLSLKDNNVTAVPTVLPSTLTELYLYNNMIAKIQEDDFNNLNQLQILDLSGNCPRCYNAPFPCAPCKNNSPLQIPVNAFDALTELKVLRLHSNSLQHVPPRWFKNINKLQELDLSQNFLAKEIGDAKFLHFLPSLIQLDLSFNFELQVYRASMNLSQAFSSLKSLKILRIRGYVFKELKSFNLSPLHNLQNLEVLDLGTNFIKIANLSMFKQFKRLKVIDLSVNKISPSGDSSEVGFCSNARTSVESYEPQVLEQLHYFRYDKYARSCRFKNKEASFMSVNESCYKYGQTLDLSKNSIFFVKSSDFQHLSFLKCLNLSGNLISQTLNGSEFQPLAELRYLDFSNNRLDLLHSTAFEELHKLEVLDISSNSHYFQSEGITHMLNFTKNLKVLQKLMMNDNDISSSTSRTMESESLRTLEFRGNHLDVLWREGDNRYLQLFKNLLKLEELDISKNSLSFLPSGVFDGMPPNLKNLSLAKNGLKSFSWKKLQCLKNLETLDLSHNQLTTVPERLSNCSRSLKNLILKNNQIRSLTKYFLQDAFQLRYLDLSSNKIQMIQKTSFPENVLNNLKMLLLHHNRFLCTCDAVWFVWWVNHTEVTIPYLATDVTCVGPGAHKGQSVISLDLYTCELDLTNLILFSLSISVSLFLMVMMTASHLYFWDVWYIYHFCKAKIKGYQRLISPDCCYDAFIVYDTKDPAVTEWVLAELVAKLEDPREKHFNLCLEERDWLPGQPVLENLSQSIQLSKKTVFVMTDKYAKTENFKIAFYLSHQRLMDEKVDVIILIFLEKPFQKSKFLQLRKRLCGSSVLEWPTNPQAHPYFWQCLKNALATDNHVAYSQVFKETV

SMILES	IC50 (human TLR7) [nM]	IC50 (human TLR8) [nM]	IC50 (human TLR9) [nM]
CCN(CC)C(=O)C1CCCN(CC(=O)N2CC3CN(C(=O)c4ccc5[nH]c(-c6ccc(OC)c(OC)c6)c(C(C)C)c5c4)CC3C2)C1 (racemic) [Example 8, 1-(2-{5-[2-(3,4-dimethoxyphenyl)-3-(propan-2-yl)-1H-indole-5-carbonyl]-octahydropyrrolo[3,4-c]pyrrol-2-yl}-2-oxoethyl)-N,N-diethylpiperidine-3-carboxamide]	129	126	7520
CCN(CC)C(=O)C1CCCN(CC(=O)N2CC3CN(C(=O)c4ccc5[nH]c(-c6ccc(OC)c(OC)c6)c(C(C)C)c5c4)CC3C2)C1 (single isomer, unassigned) [Example 10, 1-(2-{5-[2-(3,4-dimethoxyphenyl)-3-(propan-2-yl)-1H-indole-5-carbonyl]-octahydropyrrolo[3,4-c]pyrrol-2-yl}-2-oxoethyl)-N,N-diethylpiperidine-3-carboxamide]	111	114	7630
CCN(CC)C(=O)C1CCCN(CC(=O)N2CC3CN(C(=O)c4ccc5[nH]c(-c6ccc(OC)c(OC)c6)c(C(C)C)c5c4)CC3C2)C1 (single isomer, unassigned) [Example 11, 1-(2-{5-[2-(3,4-dimethoxyphenyl)-3-(propan-2-yl)-1H-indole-5-carbonyl]-octahydropyrrolo[3,4-c]pyrrol-2-yl}-2-oxoethyl)-N,N-diethylpiperidine-3-carboxamide]	606	645	36000
COc1ccc(-c2[nH]c3ccc(C(=O)N4CCCN(C)CC4)cc3c2C(C)C)cc1OC [Example 2, (2-(3,4-dimethoxyphenyl)-3-isopropyl-1H-indol-5-yl)(4-methyl-1,4-diazepan-1-yl)methanone]	45	4	3010
COc1ccc(-c2[nH]c3ccc(C(=O)N(C)C)cc3c2C(C)C)cc1OC [Example 3, 2-(3,4-dimethoxyphenyl)-3-isopropyl-N,N-dimethyl-1H-indole-5-carboxamide]	153	79	> 50000
COc1ccc(-c2[nH]c3ccc(C(=O)N4CC5CN(CC(=O)N(C)C)CC5C4)cc3c2C(C)C)cc1OC (centres unmarked) [Example 6, 2-{5-[2-(3,4-dimethoxyphenyl)-3-(propan-2-yl)-1H-indole-5-carbonyl]-octahydropyrrolo [3,4-c]pyrrol-2-yl}-N,N-dimethylacetamide]	180	180	5230
Cc1cc(-c2[nH]c3ccc(C(C)C(=O)NCCC(C)(C)O)cc3c2C(C)C)ccn1 (centres unmarked) [Example 132, N-(3-hydroxy-3-methylbutyl)-2-(3-isopropyl-2-(2-methylpyridin-4-yl)-1H-indol-5-yl)propanamide]	947	964	
Cc1cc(-c2[nH]c3ccc(C(C)(C)C(=O)N4CCCC(CCN)C4)cc3c2C(C)C)ccn1 (centres unmarked) [Example 154, 1-(3-(2-aminoethyl)piperidin-1-yl)-2-(3-isopropyl-2-(2-methylpyridin-4-yl)-1H-indol-5-yl)-2-methylpropan-1-one]	58	256	
Cc1c(-c2[nH]c3ccc(C(=O)N4CCN(C)CC4)cc3c2C(C)C)cn(C)c(=O)c1Cl [Example 220, 3-chloro-5-(3-isopropyl-5-(4-methylpiperazine-1-carbonyl)-1H-indol-2-yl)-1,4-dimethylpyridin-2(1H)-one]	141	2.1	
CCCN1CCC(N(C(=O)c2ccc3[nH]c(-c4cn(C)c(=O)c(Cl)c4C)c(C(C)C)c3c2)C2CC2)CC1 [Example 221, 2-(5-chloro-1,4-dimethyl-6-oxo-1,6-dihydropyridin-3-yl)-N-cyclopropyl-3-isopropyl-N-(1-propylpiperidin-4-yl)-1H-indole-5-carboxamide]		0.7	2940

Continued, values first:

IC50 (human TLR7) [nM]	IC50 (human TLR8) [nM]	IC50 (human TLR9) [nM]	SMILES
30	49	375	COc1ccc(-c2[nH]c3ccc(C(=O)N4CC5CNCC5C4)cc3c2C(C)C)cc1OC (centres unmarked) [Example 1, 2-(3,4-dimethoxyphenyl)-5-{octahydropyrrolo[3,4-c]pyrrole-2-carbonyl}-3-(propan-2-yl)-1H-indole]
145	27	30500	CNC(=O)c1ccc2[nH]c(-c3ccc(OC)c(OC)c3)c(C(C)C)c2c1 [Example 4, 2-(3,4-dimethoxyphenyl)-3-isopropyl-N-methyl-1H-indole-5-carboxamide]
43	43	1380	COc1ccc(-c2[nH]c3ccc(C(=O)N4C[C@@H]5C[C@H]4CN5)cc3c2C(C)C)cc1OC [Example 5, ((1S,4S)-2,5-diazabicyclo[2.2.1]heptan-2-yl)(2-(3,4-dimethoxyphenyl)-3-isopropyl-1H-indol-5-yl)methanone]
104		1390	CCc1c(-c2ccc(OC)c(OC)c2)[nH]c2ccc(C(=O)NC3CCC(N(C)C)CC3)cc12 (centres unmarked) [Example 19, 2-(3,4-dimethoxyphenyl)-N-(4-(dimethylamino)cyclohexyl)-3-ethyl-1H-indole-5-carboxamide]
296		4930	CCc1c(-c2ccc(OC)c(OC)c2)[nH]c2ccc(C(=O)N3CCC(N(C)C)CC3)cc12 [Example 31, (2-(3,4-dimethoxyphenyl)-3-ethyl-1H-indol-5-yl)(4-(dimethylamino)piperidin-1-yl)methanone]
138		1930	CCc1c(-c2ccc(OC)c(OC)c2)[nH]c2ccc(C(=O)N3CCN(C4CCN(C)CC4)CC3)cc12 [Example 36, (2-(3,4-dimethoxyphenyl)-3-ethyl-1H-indol-5-yl)(4-(1-methylpiperidin-4-yl)piperazin-1-yl)methanone]
150		2790	CCc1c(-c2ccc(OC)c(OC)c2)[nH]c2ccc(C(=O)N[C@H]3CC[C@H](N)CC3)cc12 [Example 47, N-((1r,4r)-4-aminocyclohexyl)-2-(3,4-dimethoxyphenyl)-3-ethyl-1H-indole-5-carboxamide]
144		2410	CCc1c(-c2ccc(OC)c(OC)c2)[nH]c2ccc(C(=O)NCCN3CCCCC3)cc12 [Example 49, 2-(3,4-dimethoxyphenyl)-3-ethyl-N-(2-(piperidin-1-yl)ethyl)-1H-indole-5-carboxamide]
382		19900	CCc1c(-c2ccc(OC)c(OC)c2)[nH]c2ccc(C(=O)NCCc3ccncc3)cc12 [Example 50, 2-(3,4-dimethoxyphenyl)-3-ethyl-N-(2-(pyridin-4-yl)ethyl)-1H-indole-5-carboxamide]
705		> 50000	CCc1c(-c2ccc(OC)c(OC)c2)[nH]c2ccc(C(=O)NCCc3cccnc3)cc12 [Example 51, 2-(3,4-dimethoxyphenyl)-3-ethyl-N-(2-(pyridin-3-yl)ethyl)-1H-indole-5-carboxamide]
194	110		CCc1c(-c2ccc(OC)c(OC)c2)[nH]c2ccc(C(=O)N3CCN(c4cnccn4)CC3)cc12 [Example 58, (2-(3,4-dimethoxyphenyl)-3-ethyl-1H-indol-5-yl)(4-(pyrazin-2-yl)piperazin-1-yl)methanone]
1140		> 50000	CCc1c(-c2ccc(OC)c(OC)c2)[nH]c2ccc(C(=O)N3CCN(c4ccccn4)CC3)cc12 [Example 59, (2-(3,4-dimethoxyphenyl)-3-ethyl-1H-indol-5-yl)(4-(pyridin-2-yl)piperazin-1-yl)methanone]
